For test [1], the system named is splenocytes. Nature of the test: Splenic cell proliferation assay (anti-IgM stimulated, Cell Titer-Glo). The format is cell-based. The conditions noted are these: Splenocyte; CD1 mouse splenocytes, 1 h pre-treatment, 2.5 ug/ml anti-IgM F(ab')2 for 72 h; read-out: EC50 (nM), Inhibition of splenic cell proliferation. From the text: Cellular Assay Splenic Cell Proliferation Assay
Proliferation of splenocytes in response to anti-IgM can be blocked by inhibition of Btk. Splenocytes were obtained from 6 week old male CD1 mice (Charles River Laboratories Inc.). Mouse spleens were manually disrupted in PBS and filtered using a 70 um cell strainer followed by ammonium chloride red blood cell lysis. Cells were washed, resuspended in Splenocyte Medium (HyClone RPMI supplemented with 10% heat-inactivated FBS, 0.5× non-essential amino acids, 10 mM HEPES, 50 uM beta mercaptoethanol) and incubated at 37° C., 5% CO2 for 2 h to remove adherent cells. Suspension cells were seeded in 96 well plates at 50,000 cells per well and incubated at 37° C., 5% CO2 for 1 h. Splenocytes were pre-treated in triplicate with 10,000 nM curves of Formula I compounds for 1 h, followed by stimulation of cell proliferation with 2.5 ug/ml anti-IgM F(ab′)2 (Jackson ImmunoResearch) for 72 h. Cell proliferation was measured by Cell Titer-Glo Luminescent Assay (Promega). EC50 values (50% proliferation in the presence of compound as compared to vehicle treated controls) were calculated from dose response compound curves using GraphPad Prism Software.
A general note: In ATP-based viability assays light output follows the ATP content of the culture.

Test [2] deals with histidine tagged recombinant human full-length Bruton Agammaglobulinemia Tyrosine Kinase (Btk) (Homo sapiens (Human), UniProt Q06187). Nature of the test: Btk kinase inhibition assay, Method A (fluorescence polarization, KinEASE FP Fluorescein Green). Particulars: 10 μM ATP, 250 μM substrate, 60 minutes room temperature, Ki calculated from IC50 by Cheng-Prusoff equation. The format is biochemical. The method, then:
Btk Kinase Inhibition Assays
Fluorescence polarization-based kinase assays were performed in 384 well-plate format using histidine tagged recombinant human full-length Bruton Agammaglobulinemia Tyrosine Kinase (Btk) and a modified protocol of the KinEASE™ FP Fluorescein Green Assay supplied from Millipore®. Kinase reaction were performed at room temperature for 60 minutes in presence of 250 μM substrate, 10 μM ATP and variable test article concentrations. The reaction was stopped with EDTA/kinease detection reagents. Phosphorylation of the substrate peptide was detected by fluorescence polarization measured with a Tecan 500 instrument. From the dose-response curve obtained, the IC50 was calculated using Graph Pad Prisms® using a non linear fit curve. The Km for ATP on each enzyme was experimentally determined and the Ki values calculated using the Cheng-Prusoff equation (see: Cheng Y, Prusoff W. H. (1973) Relationship between the inhibition constant (K1) and the concentration of inhibitor which causes 50% inhibition (I50) of an enzymatic reaction”. Biochem. Pharmacol. 22 (23): 3099-108). ki values are reported in Tables 2a and 2b: […]

Test [3] concerns the target human BTK kinase (hBTK) (Homo sapiens (Human), UniProt Q06187). Nature of the test: Btk kinase inhibition assay, Method B (KinaseProfiler radiometric protein kinase assay, Eurofins). The format is biochemical. The conditions noted are these: [γ-33P-ATP], 40 minutes room temperature. The method, then:
In vitro potency of selected compound was defined against human BTK kinase (hBTK) using KinaseProfiler radiometric protein kinase assays performed at Eurofins Pharma Discovery Services UK Limited.
hBTK kinase is diluted in buffer and all compounds were prepared to 50× final assay concentration in 100% DMSO. This working stock of the compound was added to the assay well as the first component in the reaction, followed by the remaining components as detailed in the assay protocol listed above. The reaction was initiated by the addition of the MgATP mix. The kinase reaction was performed at room temperature for 40 minutes in presence of 250 μM substrate, 10 mM MgAcetate, [γ-33P-ATP] (specific activity approx. 500 cpm/pmol, concentration as required) and variable test article concentrations. The ATP concentrations in the assays were with 15 μM of the apparent. The reaction was stopped by the addition of 3% phosphoric acid solution. 10 μL of the reaction is then spotted onto a P30 filtermat and washed three times for 5 minutes in 75 mM phosphoric acid and once in methanol prior to drying and scintillation counting. In addition positive control wells contain all components of the reaction, except the compound of interest; however, DMSO (at a final concentration of 2%) were included in these wells to control for solvent effects as well as blank wells contain all components of the reaction, with a reference inhibitor replacing the compound of interest. This abolishes kinase activity and establishes the base-line (0% kinase activity remaining). The potency of each compound was reported by estimating the EC50.

Sequence of histidine tagged recombinant human full-length Bruton Agammaglobulinemia Tyrosine Kinase (Btk) (Q06187 whole entry): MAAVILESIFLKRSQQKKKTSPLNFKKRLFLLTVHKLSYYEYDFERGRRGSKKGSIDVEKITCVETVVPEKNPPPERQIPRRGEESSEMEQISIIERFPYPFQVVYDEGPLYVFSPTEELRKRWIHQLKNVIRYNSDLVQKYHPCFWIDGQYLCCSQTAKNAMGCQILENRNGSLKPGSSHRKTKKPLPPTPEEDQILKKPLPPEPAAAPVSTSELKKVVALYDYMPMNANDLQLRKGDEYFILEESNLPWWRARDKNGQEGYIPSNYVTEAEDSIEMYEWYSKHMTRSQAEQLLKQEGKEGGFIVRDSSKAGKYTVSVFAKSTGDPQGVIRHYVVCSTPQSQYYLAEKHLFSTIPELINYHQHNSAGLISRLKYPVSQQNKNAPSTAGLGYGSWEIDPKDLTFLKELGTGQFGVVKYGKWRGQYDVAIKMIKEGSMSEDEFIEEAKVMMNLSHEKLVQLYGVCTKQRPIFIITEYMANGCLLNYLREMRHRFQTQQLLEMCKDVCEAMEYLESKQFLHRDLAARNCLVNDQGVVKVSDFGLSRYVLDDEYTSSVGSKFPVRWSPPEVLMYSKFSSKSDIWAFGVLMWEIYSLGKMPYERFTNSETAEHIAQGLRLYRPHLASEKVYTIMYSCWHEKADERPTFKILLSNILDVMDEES
Sequence of human BTK kinase (hBTK) (Q06187 whole entry): as above

For orientation: Ki means a dissociation constant, usually derived from enzyme kinetics or from competition with a known ligand. Regarding `Cc1ncc(COc2cc(F)cc(Oc3ccc(-c4nc(C(C)C)n5ccnc(N)c45)cc3)c2)s1` [Compound 1], the EC50 in test [1] was less than 100 nM. Further, the Ki in test [2] is less than 100 nM.
Regarding `Cc1ncc(COc2cc(F)cc(Oc3ccc(-c4nc(C(C)C)n5ccnc(N)c45)cc3)c2)cn1` [Compound 2], the EC50 in test [1] is less than 100 nM. Besides, the Ki in test [2] was less than 100 nM.
Regarding `Cc1ccc(COc2cc(F)cc(Oc3ccc(-c4nc(C(C)C)n5ccnc(N)c45)cc3)c2)cn1` [Compound 3], the EC50 in test [1] was less than 100 nM. Further, the Ki in test [2] is less than 100 nM.
In the case of `Cc1ncc(COc2cc(F)cc(Oc3ccc(-c4nc(C5CCCC5)n5ccnc(N)c45)cc3)c2)s1` [Compound 4], in test [1], the EC50 was less than 100 nM. Further, the Ki in test [2] was less than 100 nM.
Regarding `Cc1ccc(COc2cc(F)cc(Oc3ccc(-c4nc(C5CCCC5)n5ccnc(N)c45)cc3)c2)cn1` [Compound 5], the EC50 in test [1] is less than 100 nM. Moreover, in test [2], the Ki was less than 100 nM.
Take `Cc1ncc(COc2cc(F)cc(Oc3ccc(-c4nc(C5CCCC5)n5ccnc(N)c45)cc3)c2)cn1` [Compound 6]: the EC50 in test [1] is less than 100 nM. The Ki in test [2] is less than 100 nM.
For the compound `Cc1ncc(COc2cc(F)cc(Oc3ccc(-c4nc(C5CCOCC5)n5ccnc(N)c45)cc3)c2)s1` [Compound 7], the EC50 in test [1] is less than 100 nM. For the same compound, the Ki in test [2] was less than 100 nM.
For the compound `Cc1ccc(COc2cc(F)cc(Oc3ccc(-c4nc(C5CCOCC5)n5ccnc(N)c45)cc3)c2)cn1` [Compound 8], the EC50 in test [1] was less than 100 nM. The Ki in test [2] was less than 100 nM.
Consider `Cc1ncc(COc2cc(F)cc(Oc3ccc(-c4nc(C5CCOCC5)n5ccnc(N)c45)cc3)c2)cn1` [Compound 9], for which, in test [1], the EC50 is less than 100 nM. Further, the inhibition constant Ki in test [2] is less than 100 nM.
With `Cc1ncc(COc2cc(F)cc(Oc3ccc(-c4nc(C5CC5)n5ccnc(N)c45)cc3)c2)s1` [Compound 10], in test [1], the EC50 is less than 100 nM. Besides, the Ki in test [2] was less than 100 nM.
Take `Cc1ncc(COc2cc(F)cc(Oc3ccc(-c4nc(C5CC5)n5ccnc(N)c45)cc3)c2)cn1` [Compound 11]: in test [1], the EC50 is less than 100 nM. The Ki in test [2] was less than 100 nM.
With `Cc1ncc(COc2cc(F)cc(Oc3ccc(-c4nc(C5(C)COC5)n5ccnc(N)c45)cc3)c2)cn1` [Compound 12], the EC50 in test [1] is less than 100 nM. Moreover, in test [2], the Ki was less than 100 nM.
With `Cc1ncc(COc2cc(F)cc(Oc3ccc(-c4nc([C@H]5C[C@@](C)(O)C5)n5ccnc(N)c45)cc3)c2)cn1` [Compound 13], in test [1], the EC50 was less than 100 nM. For the same compound, the Ki in test [2] is less than 100 nM.
Consider `Cc1ncc(COc2cc(F)cc(Oc3ccc(-c4nc(C5CC(O)(CO)C5)n5ccnc(N)c45)cc3)c2)s1` (stereo not shown) [Compound 14], for which the EC50 in test [1] is less than 100 nM. In addition, the Ki in test [2] was less than 100 nM.
On to `Cc1ncc(COc2cc(F)cc(Oc3ccc(-c4nc(C5(C)COC5)n5ccnc(N)c45)cc3)c2)s1` [Compound 15], for which, in test [1], the EC50 was less than 100 nM. The Ki in test [2] was less than 100 nM.
With `Cc1ncc(COc2cc(F)cc(Oc3ccc(-c4nc([C@H]5C[C@@](C)(O)C5)n5ccnc(N)c45)cc3)c2)s1` [Compound 16], the EC50 in test [1] is less than 100 nM. In addition, in test [2], the Ki was less than 100 nM.
In the case of `Cc1ncc(COc2cc(F)cc(Oc3ccc(-c4nc(C5CC(=O)C5)n5ccnc(N)c45)cc3)c2)s1` [Compound 17], in test [1], the EC50 was less than 100 nM. The Ki in test [2] is less than 100 nM.
On to `Cc1ncc(COc2cc(F)cc(Oc3ccc(-c4nc(CCN5CCCC5)n5ccnc(N)c45)cc3)c2)cn1` [Compound 18], for which the EC50 in test [1] lay in the range of 100 to 1000 nM. The Ki in test [2] was less than 100 nM.
For `Cc1ncc(COc2cc(F)cc(Oc3ccc(-c4nc(C5CC(O)(CO)C5)n5ccnc(N)c45)cc3)c2)cn1` (stereo not shown) [Compound 19], in that order: less than 100 nM and less than 100 nM.
For `Cc1ncc(COc2cc(F)cc(Oc3ccc(-c4nc([C@H]5C[C@@H](N6CCN(C)CC6)C5)n5ccnc(N)c45)cc3)c2)s1` [Compound 20], in that order: less than 100 nM and less than 100 nM.
For `Cc1ncc(COc2cc(F)cc(Oc3ccc(-c4nc(C5CC(=O)C5)n5ccnc(N)c45)cc3)c2)cn1` [Compound 21], in that order: less than 100 nM and less than 100 nM.
Turning to `Cc1ncc(COc2cc(F)cc(Oc3ccc(-c4nc([C@@H]5CCCNC5)n5ccnc(N)c45)cc3)c2)cn1` [Compound 22], in test [1], the EC50 is less than 100 nM. Besides, the Ki in test [2] is less than 100 nM.
Turning to `CC(=O)N1CCC[C@@H](c2nc(-c3ccc(Oc4cc(F)cc(OCc5cnc(C)nc5)c4)cc3)c3c(N)nccn23)C1` [Compound 24], the EC50 in test [1] is less than 100 nM. In test [2], the Ki was less than 100 nM.
Turning to `C[C@]1(O)C[C@@H](c2nc(-c3ccc(Oc4cc(F)cc(OCc5ccccc5)c4)cc3)c3c(N)nccn32)C1` [Compound 25], in test [1], the EC50 is less than 100 nM. Further, the Ki in test [2] was less than 100 nM.
For the compound `CC(=O)N1CC(c2nc(-c3ccc(Oc4cc(F)cc(OCc5cnc(C)nc5)c4)cc3)c3c(N)nccn23)C1` [Compound 26], the EC50 in test [1] was less than 100 nM. Further, the inhibition constant Ki in test [2] is less than 100 nM.
`Cc1ncc(COc2cc(F)cc(Oc3ccc(-c4nc(C5CNC5)n5ccnc(N)c45)cc3)c2)cn1` [Compound 27]: in test [1], the EC50 was 100 to 1000 nM. Also, the Ki in test [2] was less than 100 nM.
As for `Cc1ncc(COc2cc(F)cc(Oc3ccc(-c4nc([C@H]5C[C@@H](O)C5)n5ccnc(N)c45)cc3)c2)cn1` [Compound 29], the EC50 in test [3] and in test [1] was less than 100 nM in each case.
As to `Cc1ncc(COc2cc(F)cc(Oc3ccc(-c4nc(C5CCNCC5)n5ccnc(N)c45)cc3)c2)cn1` [Compound 30], the EC50 in test [3] and in test [1] was less than 100 nM throughout.
Regarding `CC(=O)N1CCC(c2nc(-c3ccc(Oc4cc(F)cc(OCc5cnc(C)nc5)c4)cc3)c3c(N)nccn23)CC1` [Compound 31], the EC50 in test [3] and in test [1] was less than 100 nM each time.
For `Cc1ncc(COc2cc(F)cc(Oc3ccc(-c4nc([C@H]5C[C@@H](N6CCOCC6)C5)n5ccnc(N)c45)cc3)c2)cn1` [Compound 33], the EC50 in test [3] and in test [1] was less than 100 nM in each case.
With `Cc1ncc(COc2cc(F)cc(Oc3ccc(-c4nc([C@@H]5CCCN(C6COC6)C5)n5ccnc(N)c45)cc3)c2)cn1` [Compound 34], the EC50 in test [3] and in test [1] was less than 100 nM each time.
On to `CC(C)c1nc(-c2ccc(Oc3cc(F)cc(OCc4ccc(CO)nc4)c3)cc2)c2c(N)nccn12` [Compound 35], for which the EC50 in test [3] and in test [1] was less than 100 nM each time.

(Values after patent publication US9822120B2, “Protein kinase inhibitors” (Pharmascience Inc., priority 2013, dated 2017).)
